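1) Cells in 96-well plates. 2) Compound, 48 h, 5 concentrations. 3) Linear interpolation between surrounding doses. 4) Unreached endpoint = highest concentration. TGI is the concentration that stops growth completely.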
Experiments:
Assay in all cases: NCI-60 cell line screen, 48 h
HS 578T breast = test system: HS 578T breast
RXF 393 renal = test system: RXF 393 renal
SNB-75 CNS = test system: SNB-75 CNS
OVCAR-5 ovarian = test system: OVCAR-5 ovarian
SF-268 CNS = test system: SF-268 CNS
HOP-62 NSCLC = test system: HOP-62 NSCLC
HL-60(TB) leukemia = test system: HL-60(TB) leukemia
T-47D breast = test system: T-47D breast
NCI/ADR-RES ovarian = test system: NCI/ADR-RES ovarian
OVCAR-4 ovarian = test system: OVCAR-4 ovarian
SF-295 CNS = test system: SF-295 CNS
IGROV1 ovarian = test system: IGROV1 ovarian
SR leukemia = test system: SR leukemia
SN12C renal = test system: SN12C renal
HCT-116 colon = test system: HCT-116 colon
ACHN renal = test system: ACHN renal
A549 NSCLC = test system: A549 NSCLC
MCF7 breast = test system: MCF7 breast
NCI-H460 lung = test system: NCI-H460 lung
SK-MEL-28 melanoma = test system: SK-MEL-28 melanoma
SK-MEL-5 melanoma = test system: SK-MEL-5 melanoma
SK-OV-3 ovarian = test system: SK-OV-3 ovarian
MOLT-4 leukemia = test system: MOLT-4 leukemia
EKVX NSCLC = test system: EKVX NSCLC
CCRF-CEM leukemia = test system: CCRF-CEM leukemia
UACC-257 melanoma = test system: UACC-257 melanoma
UO-31 renal = test system: UO-31 renal
A498 renal = test system: A498 renal
SK-MEL-2 melanoma = test system: SK-MEL-2 melanoma
NCI-H226 lung = test system: NCI-H226 lung
COLO 205 colon = test system: COLO 205 colon
UACC-62 melanoma = test system: UACC-62 melanoma
HOP-92 NSCLC = test system: HOP-92 NSCLC
SF-539 CNS = test system: SF-539 CNS
HT29 colon = test system: HT29 colon
HCT-15 colon = test system: HCT-15 colon
SNB-19 CNS = test system: SNB-19 CNS
NCI-H23 lung = test system: NCI-H23 lung
K-562 leukemia = test system: K-562 leukemia
MDA-N = test system: MDA-N
RPMI-8226 leukemia = test system: RPMI-8226 leukemia
PC-3 prostate = test system: PC-3 prostate
DU-145 prostate = test system: DU-145 prostate
BT-549 breast = test system: BT-549 breast
OVCAR-8 ovarian = test system: OVCAR-8 ovarian
U251 CNS = test system: U251 CNS
HCC-2998 colon = test system: HCC-2998 colon
MDA-MB-435 = test system: MDA-MB-435
SW-620 colon = test system: SW-620 colon
OVCAR-3 ovarian = test system: OVCAR-3 ovarian
MALME-3M melanoma = test system: MALME-3M melanoma
786-0 renal = test system: 786-0 renal
NCI-H522 lung = test system: NCI-H522 lung
TK-10 renal = test system: TK-10 renal
CAKI-1 renal = test system: CAKI-1 renal
KM12 colon = test system: KM12 colon
MDA-MB-231 breast = test system: MDA-MB-231 breast
M14 melanoma = test system: M14 melanoma
LOX IMVI melanoma = test system: LOX IMVI melanoma

Q: With `Ic1ccc2c(c1)N(c1ccccc1)c1cc(N=c3ccc4nc5ccc(I)cc5n(-c5ccccc5)c-4c3)ccc1N2` as the molecule, how does the TGI (HS 578T breast) read?
A: > 100 µM

Q: And the TGI (RXF 393 renal)?
A: > 100 µM

Q: And the TGI (SNB-75 CNS)?
A: > 100 µM

Q: And the TGI (OVCAR-5 ovarian)?
A: > 100 µM

Q: And the TGI (SF-268 CNS)?
A: > 100 µM

Q: What about the TGI (HOP-62 NSCLC) of the same molecule?
A: > 100 µM

Q: What about the TGI (HL-60(TB) leukemia) of the same molecule?
A: 58.2 µM

Q: And the TGI (T-47D breast)?
A: > 100 µM

Q: And the TGI (NCI/ADR-RES ovarian)?
A: > 100 µM

Q: What about the TGI (OVCAR-4 ovarian) of the same molecule?
A: > 100 µM

Q: And the TGI (SF-295 CNS)?
A: > 100 µM

Q: And the TGI (IGROV1 ovarian)?
A: > 100 µM

Q: What about the TGI (SR leukemia) of the same molecule?
A: > 100 µM

Q: What about the TGI (SN12C renal) of the same molecule?
A: > 100 µM

Q: And the TGI (HCT-116 colon)?
A: > 100 µM

Q: What about the TGI (ACHN renal) of the same molecule?
A: > 100 µM

Q: What about the TGI (A549 NSCLC) of the same molecule?
A: > 100 µM

Q: And the TGI (MCF7 breast)?
A: > 100 µM

Q: And the TGI (NCI-H460 lung)?
A: > 100 µM

Q: And the TGI (SK-MEL-28 melanoma)?
A: > 100 µM

Q: And the TGI (SK-MEL-5 melanoma)?
A: > 100 µM

Q: And the TGI (SK-OV-3 ovarian)?
A: > 100 µM

Q: And the TGI (MOLT-4 leukemia)?
A: > 100 µM

Q: And the TGI (EKVX NSCLC)?
A: > 100 µM

Q: What about the TGI (CCRF-CEM leukemia) of the same molecule?
A: > 100 µM

Q: What about the TGI (UACC-257 melanoma) of the same molecule?
A: > 100 µM

Q: What about the TGI (UO-31 renal) of the same molecule?
A: > 100 µM

Q: And the TGI (A498 renal)?
A: > 100 µM

Q: What about the TGI (SK-MEL-2 melanoma) of the same molecule?
A: > 100 µM

Q: What about the TGI (NCI-H226 lung) of the same molecule?
A: > 100 µM

Q: What about the TGI (COLO 205 colon) of the same molecule?
A: 71.5 µM

Q: And the TGI (UACC-62 melanoma)?
A: > 100 µM

Q: What about the TGI (HOP-92 NSCLC) of the same molecule?
A: > 100 µM

Q: And the TGI (SF-539 CNS)?
A: > 100 µM

Q: And the TGI (HT29 colon)?
A: 73.1 µM

Q: What about the TGI (HCT-15 colon) of the same molecule?
A: > 100 µM

Q: What about the TGI (SNB-19 CNS) of the same molecule?
A: > 100 µM

Q: And the TGI (NCI-H23 lung)?
A: > 100 µM

Q: What about the TGI (K-562 leukemia) of the same molecule?
A: > 100 µM

Q: And the TGI (MDA-N)?
A: > 100 µM

Q: And the TGI (RPMI-8226 leukemia)?
A: > 100 µM

Q: And the TGI (PC-3 prostate)?
A: > 100 µM

Q: What about the TGI (DU-145 prostate) of the same molecule?
A: > 100 µM

Q: What about the TGI (BT-549 breast) of the same molecule?
A: > 100 µM

Q: What about the TGI (OVCAR-8 ovarian) of the same molecule?
A: > 100 µM

Q: What about the TGI (U251 CNS) of the same molecule?
A: > 100 µM

Q: What about the TGI (HCC-2998 colon) of the same molecule?
A: > 100 µM

Q: And the TGI (MDA-MB-435)?
A: 94 µM

Q: And the TGI (SW-620 colon)?
A: > 100 µM

Q: And the TGI (OVCAR-3 ovarian)?
A: 16.1 µM

Q: What about the TGI (MALME-3M melanoma) of the same molecule?
A: > 100 µM

Q: And the TGI (786-0 renal)?
A: > 100 µM

Q: And the TGI (NCI-H522 lung)?
A: 69 µM

Q: And the TGI (TK-10 renal)?
A: > 100 µM

Q: And the TGI (CAKI-1 renal)?
A: > 100 µM

Q: And the TGI (KM12 colon)?
A: > 100 µM

Q: And the TGI (MDA-MB-231 breast)?
A: > 100 µM

Q: And the TGI (M14 melanoma)?
A: 80.1 µM

Q: What does the source list for `c1ccc(-c2cn3c(nc4ccccc43)c(-c3ccccc3)n2)cc1`?
A: TGI (HS 578T breast): > 94.2 µM; TGI (RXF 393 renal): > 54.3 µM; TGI (SNB-75 CNS): > 32.9 µM; TGI (OVCAR-5 ovarian): > 100 µM; TGI (SF-268 CNS): > 100 µM; TGI (HOP-62 NSCLC): 27.9 µM; TGI (HL-60(TB) leukemia): > 100 µM; TGI (T-47D breast): > 71.3 µM; TGI (NCI/ADR-RES ovarian): > 100 µM; TGI (OVCAR-4 ovarian): > 26 µM; TGI (SF-295 CNS): > 71.9 µM; TGI (IGROV1 ovarian): > 100 µM; TGI (SR leukemia): > 100 µM; TGI (SN12C renal): > 100 µM; TGI (HCT-116 colon): > 100 µM; TGI (ACHN renal): > 100 µM; TGI (A549 NSCLC): > 100 µM; TGI (MCF7 breast): > 100 µM; TGI (NCI-H460 lung): > 100 µM; TGI (SK-MEL-28 melanoma): > 100 µM; TGI (SK-MEL-5 melanoma): > 100 µM; TGI (SK-OV-3 ovarian): 38.4 µM; TGI (MOLT-4 leukemia): > 100 µM; TGI (EKVX NSCLC): > 100 µM; TGI (CCRF-CEM leukemia): > 100 µM; TGI (UACC-257 melanoma): > 100 µM; TGI (UO-31 renal): > 65.4 µM; TGI (A498 renal): > 78.1 µM; TGI (SK-MEL-2 melanoma): > 62.5 µM; TGI (NCI-H226 lung): > 96.7 µM; TGI (COLO 205 colon): > 100 µM; TGI (UACC-62 melanoma): > 55.6 µM; TGI (HOP-92 NSCLC): 62 µM; TGI (SF-539 CNS): > 100 µM; TGI (LOX IMVI melanoma): > 100 µM; TGI (HT29 colon): > 100 µM; TGI (HCT-15 colon): > 100 µM; TGI (SNB-19 CNS): 81.7 µM; TGI (NCI-H23 lung): > 100 µM; TGI (K-562 leukemia): > 100 µM; TGI (MDA-N): > 31.6 µM; TGI (RPMI-8226 leukemia): > 100 µM; TGI (PC-3 prostate): > 100 µM; TGI (DU-145 prostate): > 100 µM; TGI (BT-549 breast): > 100 µM; TGI (OVCAR-8 ovarian): 40.3 µM; TGI (U251 CNS): 32.1 µM; TGI (HCC-2998 colon): > 100 µM; TGI (MDA-MB-435): > 100 µM; TGI (SW-620 colon): > 100 µM; TGI (OVCAR-3 ovarian): > 100 µM; TGI (MALME-3M melanoma): > 100 µM; TGI (786-0 renal): 45.1 µM; TGI (NCI-H522 lung): > 100 µM; TGI (TK-10 renal): > 93.4 µM; TGI (CAKI-1 renal): > 100 µM; TGI (KM12 colon): > 100 µM; TGI (MDA-MB-231 breast): > 100 µM; TGI (M14 melanoma): > 100 µM

Source: PubChem BioAssay (NCI)
